Measurements as given in patent US8900880B2, “Viral citrullinated peptides and uses thereof” (Toscana Biomarkers S.R.L., priority 2009, dated 2014).
Entries after “also recorded” stand apart in the source; their conditions may differ. Where two headings read alike, the source gives them in different places. Where no end group is shown, it is not given here. [ ]: non-standard residue; d: D form. Cit = NC(=O)NCCC[C@H](N)C(=O)O

Assays:
[1] = test system: anti-CP IgG antibodies in RA patients' serum; details: cut-off 97.5th percentile of normal controls; for anti-CP MAP antibodies found in the RA cohort: 100 RA patients, IgG
Description: The ability to recognize specific antibodies in RA patients by MAP of formula (V), in comparison with the MAP of formula (VI) was evaluated by ELISA.
MAP of formula (V) and MAP of formula (VI) were diluted respectively to a concentration of 20 μg/ml and 5 μg/ml in PBS, loaded into the wells of a polystyrene micro-titration plate (50 μl/well), and left overnight at +4° C. Upon completion of the coating period, the wells were treated for 1 hour at RT with 3% BSA in PBS. The patients' serum samples (diluted 1:200 in a buffer constituted by 1% BSA, 0.05% Tween X-100 in PBS) were then loaded onto the plate (50 μl/well) and left to incubate for 3 hours at RT. After the incubation period, one washing was performed with 1% PBS Tween X-100 and two washings were performed with PBS (150 μl/well). An anti human-IgG antibody conjugated to the enzyme alkaline phosphatase (50 μl/well), diluted 1:3000 in 1% PBS BSA, 0.05% Tween X-100, was incubated for 3 hours at RT with stirring. Upon completion of the incubation, after three washings as described above, p-nitrophenyl phosphate was added to the wells and the absorbance at a wavelength of 405 nm was determined. The results of the test were expressed as the percentage of positivity, calculated by dividing the absorbance of each serum sample by the absorbance of a positive serum sample the value of which was set arbitrarily at 100.
Serum samples of 100 patients suffering from RA were tested by this method.

[2] = test system: anti-VCP1 antibodies in RA and control sera; details: cited from earlier work
[3] = test system: autoantibodies in RA sera; experiment: 79 RA patients tested for anti-CCP2, anti-CCP3, anti-VCP1 and anti-VCP2 (FIG. 1); type: binding, human; details: for RA sera containing antibodies reacting with either one of the two MAP: comparison of MAP of formula (V) and MAP of formula (VI); for anti-CCP2 and anti-CCP3 negative sera positive to the peptide: of 79 RA patients; for anti-CCP2 and anti-CCP3 negative serum positive to both peptides: of 79 RA patients (1/79); for positive RA sera: population of 79 RA patients
Description: FIG. 1. […] The presence of different populations of autoantibodies is depicted in the block diagram. Number of RA sera positive (+) or negative (−) to anti-CCP2, anti-CCP3, anti-VCP1 [peptide of formula (VI)], and anti-VCP2 [peptide of formula (V)] are shown above the diagram.
Noteworthy, 7/79 (9%) anti-CCP2 and anti-CCP3 negative sera are positive to the peptide of formula (VI); 2/79 (3%) anti-CCP2 and anti-CCP3 negative sera are positive to peptide of formula (V); 1/79 (1%) anti-CCP2 and anti-CCP3 negative serum is positive to both peptides of formula (V) and formula (VI). Thus, formula (V) and (VI) allow to detect antibodies in a subgroup of anti-CCP negative RA patients (FIG. 1).

anti-SmD1 IgG antibodies = details: cited from earlier work
[4] = test system: IgG antibodies in RA and NHS sera; experiment: ELISA with differently citrullinated EBNA-2(338-358) peptides (Example 6); type: binding, human; details: for NHS positive sera: 23 normal healthy subjects; for NHS positive sera / RA positive sera: positive = greater than 97.5th percentile of normal control group; for RA positive sera: 24 RA patients
Description: The role of the number and of the position of citrullines inside EBNA-2(338-358) sequence in the detection of specific antibodies in RA sera was investigated by means of differently citrullinated peptides (Table 1).
It is believed that these two positions relate to two different antigenic regions.

[5] = test system: anti-VCP2 antibodies (IgG) from RA sera; experiment: ELISA of affinity-purified anti-VCP2 antibodies from RA sera (Example 5); type: binding, human; details: four preparations from 4 different RA sera
Description: FIG. 4. Isolation of anti-VCP2 antibodies from RA sera was performed according to the method described in example 4.
A citrullinated peptide or MAP according to the present invention was conjugated to CNBr-activated sepharose according to standard procedures known by one skilled in the art. Total immunoglobulins from sera containing anti-CP antibodies were precipitated with 50% saturated ammonium sulfate; the precipitates were dissolved in phosphate buffer (pH 7.4) and dialyzed overnight against PBS. Enriched immunoglobulin preparations were applied to the column, and the flowthrough was collected for subsequent analysis. The column was extensively washed with 20 mM Na2HPO4, 150 mM NaCl (pH 7.2), and the antibodies bound to the column were eluted by 0.1 M glycine buffer (pH 2.8) (0.5 ml/fraction), immediately neutralized with 50 μl Tris 1M (pH 8.0), and dialyzed overnight against PBS. The anti-CP antibody content in the eluates and flowthrough was tested by ELISA.

[6] = test system: anti-CP antibodies (IgG, IgM, IgA) in patients' serum samples
Description: The MAP of the citrullinated peptide antigens according to the invention was diluted to a concentration of 20 μg/ml in phosphate buffered saline (PBS) and loaded into the wells of a polystyrene micro-titration plate (50 μl/well). […] Upon completion of the coating period, the wells containing the antigen, plus an equal number of wells which were used as controls, were treated for 1 hour at room temperature (RT) with 3% bovine serum albumin (BSA) in PBS. The patients' serum samples (diluted 1:200 in a buffer constituted by 1% BSA, 0.05% Tween X-100 in PBS) were then loaded onto the plate (50 μl/well) and left to incubate for 3 hours at RT. After the incubation period, one washing was performed with 1% PBS Tween X-100 and two washings were performed with PBS (150 μl/well). […] The antibody (50 μl/well) was then incubated for 3 hours at RT with agitation. Upon completion of the incubation, after three washings as described above, the alkaline phosphatase substrate (p-nitrophenyl phosphate) was added to the wells and, in the presence of the enzyme, it produced a yellow product measurable by spectrophotometric techniques at a wavelength of 405 nm; its quantity was proportional to the titre of antibodies bound. The results of the test were expressed as the percentage of positivity, calculated by dividing the absorbance of each serum sample by the absorbance of a positive serum sample the value of which was set arbitrarily at 100.
Serum samples of 104 patients suffering from RA, 97 normal healthy subjects (NHS), and 194 disease controls (systemic lupus erythematosus, systemic scleroderma, Sjogren syndrome, mixed cryoglobulinemia, psoriasic arthritis, ankylosing spondilytis, rheumatic polymialgia and infectious mononucleosis) were tested by this method using the peptide of formula (V).

[7] = test system: anti-citrullinated peptides/proteins antibodies (ACPA) in serum; details: 206 disease controls
Description: The MAP of the citrullinated peptide antigens according to the invention was diluted to a concentration of 20 μg/ml in phosphate buffered saline (PBS) and loaded into the wells of a polystyrene micro-titration plate (50 μl/well). […] Upon completion of the coating period, the wells containing the antigen, plus an equal number of wells which were used as controls, were treated for 1 hour at room temperature (RT) with 3% bovine serum albumin (BSA) in PBS. The patients' serum samples (diluted 1:200 in a buffer constituted by 1% BSA, 0.05% Tween X-100 in PBS) were then loaded onto the plate (50 μl/well) and left to incubate for 3 hours at RT. After the incubation period, one washing was performed with 1% PBS Tween X-100 and two washings were performed with PBS (150 μl/well). […] Upon completion of the incubation, after three washings as described above, the alkaline phosphatase substrate (p-nitrophenyl phosphate) was added to the wells and, in the presence of the enzyme, it produced a yellow product measurable by spectrophotometric techniques at a wavelength of 405 nm; its quantity was proportional to the titre of antibodies bound. The results of the test were expressed as the percentage of positivity, calculated by dividing the absorbance of each serum sample by the absorbance of a positive serum sample the value of which was set arbitrarily at 100.

[8] = WO2004087747, MAP as coating antigen

Substance: (G G D N H G Cit G Cit G Cit G Cit G Cit G G G Cit P G A P G)4 K2 K beta-Alanine [VCP1]
- anti-CP MAP antibodies found in the RA cohort [1]: 47%
- anti-VCP1 antibodies found in RA sera ([2]; Anzilotti et al. 2006, 300 RA patients): 45%
- anti-VCP1 antibodies found in controls ([2]; Anzilotti et al. 2006, 327 controls): less than 5%
- antibodies detected in RA sera ([2]; Pratesi et al. 2006): 50%
- antibodies detected in normal and disease control sera ([2]; Pratesi et al. 2006): less than 5%
- antibodies detected in RA sera [2, 8]: 45%
- specificity [2, 8]: 95%
- RA sera containing antibodies reacting with either one of the two MAP [3]: 15%
- anti-CCP2 and anti-CCP3 negative sera positive to the peptide [3]: 9%
- anti-CCP2 and anti-CCP3 negative serum positive to both peptides [3]: 1%
- positive RA sera [3]: 62%

Substance: EBNA-2(354-373): non deiminated sequence EBNA2(354-373) of Incaprera et al.
- IgG detection in IM and SLE sera (anti-SmD1 IgG antibodies; Incaprera et al. 1998): detection of IgGs
- antibody recognition (anti-SmD1 IgG antibodies; systemic lupus erythematosus autoimmunity): recognizes anti-SmD1 IgG antibodies

Substance: GQSRGQSRGCitGRGCitGRGRGKG (GQSRGQSRG[Cit]GRG[Cit]GRGRGKG; not fully specified) [[Cit^347, Cit^349]EBNA2(338-358)]
- NHS positive sera [4]: 1/23
- RA positive sera [4]: 5/24

Substance: GQSRGQSCitGRGRGRGCitGRGKG (GQSRGQS[Cit]GRGRGRG[Cit]GRGKG) [[Cit^345, Cit^353]EBNA2(338-358)]
- NHS positive sera [4]: 2/23
- RA positive sera [4]: 6/24

Substance: GQSRGQSRGRGRGCitGRGRGKG (GQSRGQSRGRGRG[Cit]GRGRGKG) [[Cit^351]EBNA2(338-358)]
- NHS positive sera [4]: 1/23
- RA positive sera [4]: 6/24

Substance: GQSRGQSRGRGRGRGRGRGKG [EBNA2(338-358), reference compound]
- reactivity of purified anti-VCP2 IgG with the antigen [5]: no binding
- NHS positive sera [4]: 0/23
- RA positive sera [4]: 3/24
- reactivity with RA sera (in words) ([4]; 24 RA sera, relevant = more than 25% positive): does not react with RA sera; also recorded: does not recognize IgG antibodies in a relevant number of RA sera

Substance: GQSCitGQSRGRGRGRGRGRGKG (GQS[Cit]GQSRGRGRGRGRGRGKG) [[Cit^341]EBNA2(338-358)]
- NHS positive sera [4]: 1/23
- RA positive sera [4]: 4/24

Substance: GQSRGQSCitGRGCitGRGRGCitGKG (GQSRGQS[Cit]GRG[Cit]GRGRG[Cit]GKG)
- NHS positive sera [4]: 0/23
- RA positive sera [4]: 8/24

Substance: (G Q S Cit G Q S Cit G Cit G Cit G Cit G Cit G Cit G K G)4 K2 K beta-Alanine [VCP2]
- anti-CP antibodies found in normal healthy subjects and disease controls ([6]; 97 NHS and 194 disease controls): less than 5%
- anti-CP IgA antibodies found in RA serum samples ([6]; 104 RA patients (41/104), cut-off 97.5th percentile of normal controls): 40%
- anti-CP IgM antibodies found in RA serum samples ([6]; 104 RA patients (48/104), cut-off 97.5th percentile of normal controls): 46%
- anti-CP IgG antibodies found in RA serum samples ([6]; 104 RA patients (67/104), cut-off 97.5th percentile of normal controls): 64%
- anti-CP MAP antibodies found in the RA cohort [1]: 64%
- specificity [1]: 95%
- reactivity of purified anti-VCP2 IgG with the antigen [5]: very high reactivity
- RA sera containing antibodies reacting with either one of the two MAP [3]: 15%
- anti-CCP2 and anti-CCP3 negative sera positive to the peptide [3]: 3%
- anti-CCP2 and anti-CCP3 negative serum positive to both peptides [3]: 1%
- positive RA sera [3]: 52%
- specificity in detecting ACPA in RA patients ([7]; 100 RA, 100 NHS): high specificity
- antibodies detected in disease controls ([7]; in particular IM and SLE): no antibodies were detected

Substance: GQSCitGQSRGRGRGCitGRGRGKG (GQS[Cit]GQSRGRGRG[Cit]GRGRGKG; not fully specified) [[Cit^341, Cit^349]EBNA2(338-358)]
- NHS positive sera [4]: 0/23
- RA positive sera [4]: 6/24

Substance: GQSRGQSRGRGRGCitGRGCitGKG (GQSRGQSRGRGRG[Cit]GRG[Cit]GKG; not fully specified) [[Cit^349, Cit^355]EBNA2(338-358)]
- NHS positive sera [4]: 0/23
- RA positive sera [4]: 9/24
